Molecular target: T1, GFP-CESA6c (central cytosolic domain of AtCESA6) (Arabidopsis thaliana, UniProt Q94JQ6)
T1 construct: made in house; host or cells: E. coli
Test: MST assay with GFP-CESA6c
Format: binding
Details: 100 nM GFP-CESA6c
Description: To obtain the central cytosolic domain of AtCESA6 for the MST assay, we inserted the GFP coding sequence into the SacI and PstI restriction enzyme sites of the pRSF-Duet-1 vector (Huang et al., 2020). The GFP coding sequence was amplified from the pUBN-GFP-DEST vector. The sequence encoding the central cytosolic domain of CESA6 (CESA6c) was amplified from Col-0 cDNA and fused with GFP at the C-terminus. CESA6c construct was used as a template for creating CESA6c^P595S construct by site-directed mutagenesis. Protein purification was performed as previously described (Huang et al., 2020).
MST assays were carried out using a Monolith NT.115 (NanoTemper) machine at the Chemical Genomics Facility at Purdue University. […] The ES20-1 was dissolved in DMSO, and the final concentration of DMSO was 5% (vol/vol). MST standard capillaries were used to load the samples into the MST instrument. Triplicate reactions were performed for each test. The MST data were processed using MO. Affinity Analysis Version 2.3 software.

T1 sequence (Q94JQ6 322-868): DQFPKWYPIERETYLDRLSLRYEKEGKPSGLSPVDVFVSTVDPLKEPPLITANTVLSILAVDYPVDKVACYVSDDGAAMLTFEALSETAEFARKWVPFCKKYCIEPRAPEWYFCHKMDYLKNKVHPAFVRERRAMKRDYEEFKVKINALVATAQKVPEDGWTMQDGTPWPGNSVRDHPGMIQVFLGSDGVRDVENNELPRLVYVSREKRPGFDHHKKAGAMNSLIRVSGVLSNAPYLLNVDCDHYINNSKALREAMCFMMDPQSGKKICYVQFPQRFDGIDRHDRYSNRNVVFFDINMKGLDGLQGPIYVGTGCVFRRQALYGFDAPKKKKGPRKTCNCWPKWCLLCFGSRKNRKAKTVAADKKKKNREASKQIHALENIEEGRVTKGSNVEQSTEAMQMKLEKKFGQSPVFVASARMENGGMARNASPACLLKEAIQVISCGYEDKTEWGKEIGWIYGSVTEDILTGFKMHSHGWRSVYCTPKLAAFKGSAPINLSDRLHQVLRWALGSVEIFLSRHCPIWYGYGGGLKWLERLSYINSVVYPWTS

interaction with CESA6c: did not interact
SMILES: CC1(C)S[C@@H]2[C@H](NC(=O)[C@H](N)c3ccccc3)C(=O)N2[C@H]1C(=O)O [ampicillin, reference compound]
